Source: patent publication US9822414B2, “In vitro method for predicting in vivo genotoxicity of chemical compounds” (priority 2011, dated 2017)
Where “and” joins values, the source holds several entries; their conditions need not be identical. Equal entries are not always repeated. Where two headings read alike, the source gives them in different places.

Experiments:
[1] = tested on: conventional in vitro genotoxicity assays; conditions: cited from earlier work
[2] = tested on: PNMA6A; test: Gene expression of PNMA6A in HepG2 cells exposed to compound (microarray, log2 treatment:control ratio); assay type: cell-based, human; conditions: HepG2 cells; for Log2 treatment: control ratio PNMA6A: 24 h exposure, Ames negative compounds, one line per replicate of triplicate experiments; for PNMA6A: expression versus reference value, single measurement of three
[3] = tested on: HepG2 cell; test: Class prediction of in vivo genotoxicity by the method of the invention (Ames stratification plus three-gene expression in HepG2); conditions: for Prediction (class prediction results using the method of the invention): 62 compounds, three replicates, HepG2 24 h; for At least ⅔ genes +?: per single measurement, GTX when at least two out of three genes above reference value
[4] = tested on: rodents; conditions: cited from earlier work
[5] = tested on: C10orf65/HOGA1; test: Gene expression of C10orf65/HOGA1 in HepG2 cells exposed to compound (microarray, log2 treatment:control ratio); assay type: cell-based, human; conditions: for Log2 treatment: control ratio C10orf65/HOGA1: 24 h exposure, Ames negative compounds, one line per replicate of triplicate experiments; for C10orf65/HOGA1: expression versus reference value, single measurement of three
[6] = tested on: Salmonella typhimurium; conditions: cited from earlier work
[7] = tested on: SLC40A1; test: Gene expression of SLC40A1 in HepG2 cells exposed to compound (microarray, log2 treatment:control ratio); assay type: cell-based, human; conditions: HepG2 cells; for Log2 treatment: control ratio SLC40A1: 24 h exposure, Ames negative compounds, one line per replicate of triplicate experiments; for SLC40A1: expression versus reference value, single measurement of three
[8] = tested on: HepG2 cell
[9] = standard in vivo genotoxicity designation

| Structure (SMILES) | In vitro GTX [1] | Log2 treatment: control ratio PNMA6A [2] | Prediction (class prediction results using the method of the invention) [3] | Standard [4, 9] | Log2 treatment: control ratio C10orf65/HOGA1 [5] | C10orf65/HOGA1 [5] | Ames [6] | Log2 treatment: control ratio SLC40A1 [7] | SLC40A1 [7] | PNMA6A [2] | Standard ([4]; in vivo) | Ames ([6]; Ames results based on NTP data) | other results |
| --- | --- | --- | --- | --- | --- | --- | --- | --- | --- | --- | --- | --- | --- |
| CC1=CC(=O)[N-]S(=O)(=O)O1.[K+] [ASK] | − | 0.264 and 0.161 and −0.677 | NGTX | NGTX | 0.014 and −0.015 and 0.083 | − (below the reference value) | − | −0.348 and −0.221 and 0.08 | − (below the reference value) |  |  |  |  |
| Nc1ccccc1C(=O)O [AnAc] | + |  | NGTX | NGTX |  | − (below the reference value) | − |  | − (below the reference value) |  |  |  | Log2 treatment: control ratio PNMA6A ([2]; listed as AA): 0.167 and −0.628 and 0.562; Log2 treatment: control ratio C10orf65/HOGA1 ([5]; listed as AA): −0.045 and −0.061 and 0.002; Log2 treatment: control ratio SLC40A1 ([7]; listed as AA): −0.174 and −0.49 and 0.007 |
| Clc1ccc(C(c2ccc(Cl)cc2)C(Cl)(Cl)Cl)cc1 [DDT] | − | −0.223 and 0.118 and −0.515 | NGTX | NGTX | −0.925 and 0.469 and −0.025 |  | − | 0.685 and 0.118 and 0.493 |  | − (below the reference value) |  |  |  |
| CC/C(=C(/CC)c1ccc(O)cc1)c1ccc(O)cc1 [DES] | + | 0.286 and 0.203 and 0.135 |  |  | 0.146 and 0.516 and 0.206 | + (above the reference value) |  | 1.504 and 0.717 and 0.723 | + (above the reference value) |  | GTX | − | At least ⅔ genes +? [8]: GTX; Average result over three measurements [8]: GTX; Prediction (class prediction results using the method of the invention) [8]: GTX; In vivo GTX ([4]; in vivo): + |
| CCOP(=S)(OCC)Oc1cc(C)nc(C(C)C)n1 [DZN] | − | −0.352 and −0.624 and −0.03 | NGTX | NGTX | −1.12 and −0.738 and −1.077 | − (below the reference value) | − | 0.569 and 0.773 and 1.44 | + (above the reference value) | − (below the reference value) |  |  |  |
| OC[C@@H](O)[C@@H](O)[C@H](O)[C@H](O)CO [Dman] | − | −0.035 and 0.459 and 0.01 | NGTX | NGTX | 0.022 and −0.159 and 0.023 | − (below the reference value) | − | 0.005 and −0.155 and −0.035 | − (below the reference value) |  |  |  |  |
| C[C@]12CC[C@@H]3c4ccc(O)cc4CC[C@H]3[C@@H]1CC[C@@H]2O [E2, Estradiol] |  |  | NGTX |  |  |  |  |  | − (below the reference value) | − (below the reference value) |  |  |  |
| C=CC(=O)OCC [EtAc, Ethylacrylate] | + | 0.375 and 0.243 and 0.409 | GTX |  | 0.391 and 0.429 and 0.624 | + (above the reference value) | − | −0.448 and 0.634 and 0.031 |  |  | NGTX |  | Average result over three measurements [3]: GTX; At least ⅔ genes +? [3]: GTX |
| CCc1ccccc1 [EthylB] | + | 0.313 and 0.434 and 0.392 | NGTX | NGTX | −0.18 and 0.116 and −0.084 | − (below the reference value) | − | −0.23 and −0.141 and 0.295 | − (below the reference value) | + (above the reference value) |  |  |  |
| C=CCc1ccc(O)c(OC)c1 [EuG] | + | 0.39 and 0.124 and 0.031 |  |  | −0.156 and 0.3 and −0.066 |  |  | 0.161 and 0.712 and 0.293 |  |  | NGTX | − | Average result over three measurements [8]: NGTX; Prediction (class prediction results using the method of the invention) [8]: NGTX+; In vivo GTX ([4]; in vivo): − |
| CCOc1ccc(NC(C)=O)cc1 [Phen] | + | −0.023 and 0.218 and −0.237 | NGTX | NGTX | 0.043 and 0.056 and 0.034 | − (below the reference value) | − | −0.646 and 0.127 and −0.048 | − (below the reference value) | − (below the reference value) |  |  |  |
| Oc1cccc(O)c1 [RR, Resorcinol] | + |  | GTX | NGTX |  | + (above the reference value) |  |  | + (above the reference value) | + (above the reference value) |  | − | Results in the conventional in vitro genotoxicity assays ([1]; see Table 5): positive results; Average result over three measurements [3]: GTX; Classification of NGTX compounds by the method of the invention (false positives) ([3]; in vivo NGTX compounds): misclassification; At least ⅔ genes +? [3]: GTX |
| COC(=O)[C@H]1[C@H]2C[C@@H]3c4[nH]c5cc(OC)ccc5c4CCN3C[C@H]2C[C@@H](OC(=O)c2cc(OC)c(OC)c(OC)c2)[C@@H]1OC [Res] | − | 0.09 and −0.624 and 0.288 |  |  | 0.047 and 6.45E−05 and −0.043 | − (below the reference value) |  | 0.398 and −0.212 and −0.057 |  |  | NGTX | − | At least ⅔ genes +? [8]: NGTX; Average result over three measurements [8]: NGTX; Prediction (class prediction results using the method of the invention) [8]: NGTX; In vivo GTX ([4]; in vivo): − |
| CCNc1nc(Cl)nc(NCC)n1 [Sim] | − | 0.246 and 0.186 and 0.202 |  |  | 0.22 and 0.14 and 0.155 |  |  | −0.601 and −0.1 and −0.245 | − (below the reference value) | − (below the reference value) | NGTX | − | At least ⅔ genes +? [8]: NGTX; Average result over three measurements [8]: NGTX; Classification of NGTX compounds by the method of the invention (false positives) [8]: misclassification; Prediction (class prediction results using the method of the invention) [8]: NGTX; In vivo GTX ([4]; in vivo): − |
| CCC[CH2][Sn]([CH2]CCC)([CH2]CCC)[O][Sn]([CH2]CCC)([CH2]CCC)[CH2]CCC [TBTO] | + | 0.909 and 0.663 and 0.456 | GTX | GTX | 0.426 and 0.098 and 0.858 |  | − | 0.604 and 1.649 and 0.208 |  | + (above the reference value) |  |  | Average result over three measurements [3]: GTX; At least ⅔ genes +? [3]: GTX; In vivo GTX ([4]; positive when at least one in vivo assay (MN, CA) positive, equivocal considered positive): + |
| Clc1cc2c(cc1Cl)Oc1cc(Cl)c(Cl)cc1O2 [TCDD] | − | −0.041 and 0.26 and 0.072 | NGTX | NGTX | −0.107 and 0.056 and 0.151 |  | − | 0.169 and −0.21 and 0.104 | − (below the reference value) |  |  |  |  |
| CCCCCCCCCCCCCC(=O)O[C@@H]1[C@@H](C)[C@@]2(O)[C@@H](C=C(CO)C[C@]3(O)C(=O)C(C)=C[C@@H]23)[C@H]2C(C)(C)[C@]12OC(C)=O [TPA] | − | −0.493 and −0.137 and −0.26 | NGTX | NGTX | 0.108 and −0.423 and 0.14 | − (below the reference value) | − | −0.327 and 1.338 and 0.199 |  | − (below the reference value) |  |  |  |
| Cc1cccc(Nc2cc(Cl)nc(SCC(=O)O)n2)c1C [WY] | − | 0.059 and −0.515 and 1.157 |  |  | −0.061 and −0.158 and −0.053 | − (below the reference value) |  | −0.312 and −0.393 and −0.643 | − (below the reference value) |  | NGTX | − | At least ⅔ genes +? [8]: NGTX; Average result over three measurements [8]: NGTX; Prediction (class prediction results using the method of the invention) [8]: NGTX; In vivo GTX ([4]; in vivo): − |
